Tests used:
[1] = system: pigs with induced atrial fibrillation; assay: Cardioversion of induced AF by IT flecainide, intact porcine model (Example 6); format: in vivo, Yorkshire pigs
Experimental: After 30-min recovery, the alternate intervention was tested. Times for conversion to normal sinus rhythm were compared.

[2] = system: healthy volunteers; details: in vivo
Experimental: 3 cohorts of subjects, in total 34 healthy adult volunteers, were recruited for Part A study.
Part B was an open label non-randomized crossover in a cohort of 6 evaluable healthy adult volunteers.
In addition, the effects of changing posture from semi-recumbent to seated upright, vice-versa and during inhalation on HR and BP were assessed (Cohort 5).

time for plasma concentration to reach levels required for conversion ([1]; IT 0.75 and 1.5 mg/kg (FIG. 66A)): ≤ 10 min
dose dependence of magnitude of HR increases [2]: not dose-dependent
HR ([2]; iv, 2 mg/kg): An increase in HR was observed
systolic and diastolic BP ([2]; iv, 2 mg/kg): Decreases in systolic and diastolic BP
SMILES: O=C(NCC1CCCCN1)c1cc(OCC(F)(F)F)ccc1OCC(F)(F)F (centres unmarked) [flecainide]
reduction of AF duration ([1]; IT 0.75 mg/kg vs no-drug): 50%
time to conversion of AF to normal sinus rhythm ([1]; IT 0.75 mg/kg, n=3, no-drug 16.2±0.9): 8.1 ± 1.0 min
AF conversion in representative electrograms, time after IT flecainide ([1]; IT 1.5 mg/kg (FIG. 65)): 5 min
shortening in AF duration ([1]; IT 1.5 mg/kg vs no drug): 72%
time to conversion of AF to normal sinus rhythm (mean±SEM) ([1]; IT 1.5 mg/kg, n=5, no drug 12.3±1.9 min): 3.4 ± 0.3 min
dominant frequency of AF ([1]; IT 0.75 and 1.5 mg/kg): reduced the dominant frequency of AF
relation of AF duration to dose ([1]; IT 0.75 and 1.5 mg/kg): AF duration correlated with flecainide dose
MAP and ventricular rate after conversion ([1]; IT 1.5 or 0.75 mg/kg): restored MAP and ventricular rate to baseline values
effectiveness in rapidly converting AF to normal sinus rhythm ([1]; IT 1.5 or 0.75 mg/kg): 100%
magnitude of blood pressure changes vs placebo [2]: similar
